According to paper PMC11755785 (Langmuir, 2025):

Legend:
[1] = Phase-solubility diagram with HP-β-CD; type: physicochemical; design: stability constant K1:2 with HP-β-CD: unit not given here
[2] = UVA1 (365 nm) photodegradation in aqueous buffer, UV–vis spectra / RP-HPLC; type: physicochemical; conditions: for UVA1 photodegradation (spectral change): 50 μM, aqueous; for diketo increase to the keto-enol decrease: UVA1 365 nm
Description: (§1) The samples were obtained after passage for appropriate periods and measured using an UV–vis spectrophotometer in the maximum range between 200 and 700 nm (arranged on demand) from long wavelengths toward short wavelengths to avoid unnecessary irradiation of the UV region. To obtain HPLC chromatograms, aliquots of the UV-irradiated solution were obtained by pipetting at 0, 1/5, 1/2, 1, 2, 3, 4, 24, 48, 72, 96, 120, 144, and 168 h for AVB and at 0, 1, 2, 3, and 18 h for CUR. To obtain those of OXB in the absence or presence of β-CD, the invariable samples were certified at 0 and 48 h. For the samples in acetonitrile aqueous solution or methanol aqueous solution at a ratio of 7:3, the time evolution of the UVA1 irradiated solution was examined under similar conditions.

[3] = Photostability under solar light, UV–vis spectra; type: physicochemical; conditions: solar light 4 h; 50 μM; presence or absence of β-CD
Description: The photostability of the drug under solar light was evaluated using UV–vis spectral measurements. Sample solutions were exposed to solar light outdoors at a sunny location on a latitude of 35.92° N and a longitude of 139.91° E for 4 h, from 12:00 to 16:00, at an average temperature of 284.55 K.

[4] = UVA1 (365 nm) photodegradation in isochoric acetonitrile/water solvent; type: physicochemical; conditions: UVA1 365 nm, 25 μM
Description: as §1

[5] = 1H NMR titration of keto-enol and diketo tautomeric species; type: physicochemical
Description: ^1H NMR measurements were conducted using a 400 MHz NMR spectrometer (JNM-ECZ 400 S, Japan Electronics Co., Ltd., Tokyo, Japan). Sample solutions were prepared using D2O and methanol-d4 as the protic solvent, acetonitrile-d3 as the aprotic solvent, and their mixtures, with sample concentrations exceeding 1.5% (w/v). The chemical shifts of the samples were calibrated using the internal tetramethylsilane (TMS) signal as the zero point, whereas the solvent signals in the literature served as reference points. When sodium salts were required, the neutral AVB species in D2O were dissolved in equimolar amounts of aqueous NaOH and methanol-d4, followed by drying under reduced pressure in a rotary evaporator and heating to dryness below Tm of the sodium salts. The formation of sodium salts was confirmed by measuring Tm using a differential scanning calorimeter (DSC8230, Rigaku Co., Ltd., Tokyo, Japan).
In the one-dimensional (1D) ^1H NMR spectra, the integral intensities correspond to the relative stoichiometry of protons for the species, except for the signals assigned to the stable isotopes of deuterated solvents. We could recognize the aromatic proton signals of AVB, but the corresponding signals sometimes overlapped between its keto-enol and diketo species, depending upon the solvent composition. The signals of the aromatic protons at the para positions to the keto/enol substituents were neglected because of the high probability of overlap, in which the chemical shift drifts, Δδ, related to the shielding effect are not noticeably accompanied by the electronic states in the keto/enol substituents.
We chose the signals of the aromatic protons at the ortho positions and the aliphatic protons at the ortho substituents (tert-butyl and methoxy groups) to keto/enol substituents and measured their integral intensities. Using the simultaneous equations built as linear combinations of integral values for the isolated and overlapping signals, we determined the molar ratio of the keto-enol and diketo species.

[6] = cited from earlier work
[7] = regression with 2-order equation, pH 6.8
[8] = 70% methanol (methanol-d4/D2O = 7:3)
[9] = isochoric acetonitrile/water solvent

p-tert-butyl-p-methoxydibenzoylmethane [AVB]
stability constant K1:2 with HP-β-CD ([1]; 25 mM Pi/NaOH buffer pH 6.8, 298 K, Figure 2): 40.4
stability constant K1:1 with HP-β-CD ([1]; 25 mM Pi/NaOH buffer pH 6.8, 298 K, Figure 2, in M-1 (unit assumed)): 90.3
stability constant K1:1 with HP-β-CD (equimolar complex) [1, 7]: 90.3 L/mol
stability constant K1:2 with HP-β-CD (1:2-ratio complex) [1, 7]: 40.4 L^2/mol^2
UVA1 photodegradation (spectral change) ([2]; absence of β-CD): gradually photodegraded
UVA1 photodegradation (spectral change) ([2]; presence of β-CD): insignificantly degraded
diketo increase to the keto-enol decrease ([2]; 25 μM β-CD): 20.1%
diketo increase to the keto-enol decrease ([2]; 4 mM β-CD): 23.9%
diketo increase to the keto-enol decrease ([2]; no β-CD): 19.3%
stability under solar light compared to UVA1 irradiation [3]: no significant changes in stability
effect of equimolar and 4 mM β-CD on photodegradation velocity / first-order rate [4]: reduced the photodegradation velocity
molar ratio of diketo species [5, 8]: 15.3%
molar ratio of keto-enol species [5, 8]: 84.7%
molar ratio of diketo species [5, 9]: 9.3%
molar ratio of keto-enol species [5, 9]: 90.7%
log Kow ([6]; Chart 1): 4.51
reported log P [6]: 4.51
reported pKa [6]: 9.7
partition coefficient log KOW ([6]; introduction, reference not given): 4.51
